Measurements taken from PMC5059467, “Anti-tubulin drugs conjugated to anti-ErbB antibodies selectively radiosensitize” (Nature Communications, 2016).
Square brackets hold non-standard residues; d marks the D form. Peptide text beside a SMILES is read from it. * marks the point of attachment. Dolaproine = CO[C@@H]([C@@H]1CCCN1)[C@@H](C)C(=O)O; Dil = CC[C@H](C)[C@H](NC)[C@@H](CC(=O)O)OC; X1 = C[C@@H](N*)[C@@H](O)c1ccccc1; NMeV = CN[C@H](C(=O)O)C(C)C

Tests used:
[1] = tested on: NCI N87 tumour xenografts; test: NCI N87 tumour xenograft growth with or without IR; format: in vivo, mice; settings: for Tumour doubling time in days (mean, 95% CI): NCI N87 (HER2+)
Procedure: (§1) CAL-27, OE19, NCI N87 and HCT116 tumour xenografts were established and tumour growth was measured with digital calipers. Tumour volume was measured blindly to treatment group and calculated using the formula as ½ × length × width^2. Mice were randomized into groups once the average tumour volume reached >100 mm^3. Mice were assigned to indicated groups in ‘Results'. […] For irradiated mice, the tumour-bearing hindlimbs were focally irradiated while the remainder of the mouse was shielded from IR with custom designed lead blocking >95% of the dose as verified by dosimeters placed on the mouse. […] To prevent unnecessary morbidity, mice were killed if tumour length exceeded 15 mm per protocol. Nonlinear regression least squares fit was used to calculate tumour volume doubling times. […] To minimize the number of mice used, tumours were grown in the bilateral flanks.

[2] = tested on: HER2+ and HER2− cell lines; test: Neutral comet assay after IR, HER2+ and HER2− cell lines; format: cell-based, human; settings: 20 nM overnight, 2 Gy
Procedure: (§2) Cells were collected 15 min post IR, suspended in agarose gel and lysed per assay directions (Trevigen). Samples underwent electrophoresis under neutral conditions and were then stained with Sybr Green. Comet tails were counted in multiple fields (>60 cells per sample) and analysed using CometScore (TriTek Corp). Comet tail length was normalized to vehicle-treated, non-irradiated cells.

OE19 tumour xenografts = test: OE19 tumour xenograft growth with or without IR; format: in vivo, mice; settings: for Tumour doubling time in days (mean, 95% CI): OE19 (HER2+)
Procedure: as §1

NCI N87 cells = settings: read-out: IC50 (cell viability); HER2+ NCI N87 (gastric cancer); 72–96 h
Procedure: (§3) Alamar Blue (resazurin) was added to the cells and allowed to incubate for 2–4 h at 37 °C. Plates were analysed using a plate reader with fluorescence measured at 560 nm.

HCT116 cells [3] = settings: read-out: IC50 (cell viability); HER2- HCT116; 72–96 h
Procedure: as §3

CAL-27 cells [4] = tested on: CAL-27 cells
Procedure: as §3

HCT116 cells [5] = test: Cell cycle profile (propidium iodide, flow cytometry), HCT116 cells; format: cell-based, human; settings: overnight treatment
Procedure: (§4) Cells were treated with RNAse, stained with propidium iodide (PI) and analysed by FACS using FloJo software.

OE19 tumours = test: Immunohistochemistry of OE19 tumour xenografts (pS10 Histone H3, cleaved caspase 3); format: in vivo, mice; settings: tumours harvested 48 h after drug
Procedure: Tissue sections were cut from blocks of formalin-fixed paraffin embedded xenografts. Four micron thick tissue sections were stained with antibodies to phospho-histone H3 (pH3, Abcam, catalogue number ab32107) and cleaved caspase-3 (ClC3, Cell Signaling Technology, catalogue number 9661) and used at dilutions of 1:300 and 1:900, respectively. Slides were stained on a Ventana Discovery Ultra (Ventana Medical Systems, Tucson, AZ, USA). Antigen retrieval was performed using CC1 for 24–40 min at 95 °C. The primary antibodies were incubated on the sections for 1 h at 37 °C. Primary antibodies were visualized used DAB as a chromagen using the UltraMap system (Ventana Medical systems) followed by hematoxylin as a counterstain. Slides were rinsed, dehydrated through alcohol and xylene and coverslipped.
Immunostained slides were scanned using an Axio Scan.Z1 (Zeiss; Oberkochen, Germany). […] Whole-slide images were imported into Definiens Software for quantitative analysis (Definiens; Munich, Germany). […] For analysis of pH3 (a nuclear stain), the total number of nuclei and the total number of nuclei showing DAB staining (pH3 positive cells) were recorded within each ROI. The percent of positive nuclei was then calculated for each sample. For analysis of ClC3 (a cytoplasmic stain), mean DAB chromagen intensity was measured and calculated within the ROI for each sample.

OE19 cells [6] = test: Alamar blue cell viability, OE19 cells; format: cell-based, human; settings: HER2+ OE19; 72–96 h
OE19 cells [7] = test: Neutral comet assay after IR, OE19 cells; format: cell-based, human
Procedure: as §2

HCT116 tumour xenografts = test: HCT116 tumour xenograft growth with or without IR; format: in vivo, mice; settings: for Tumour doubling time in days (mean, 95% CI): HCT116 (HER2−)
Procedure: as §1

OE19 cells [8] = test: Cell cycle profile (propidium iodide, flow cytometry), OE19 cells; format: cell-based, human; settings: overnight treatment
Procedure: as §4

CAL-27 cells [9] = test: Cell cycle profile (propidium iodide, flow cytometry), CAL-27 cells; format: cell-based, human; settings: overnight treatment
Procedure: as §4

CALU3 cells = test: Neutral comet assay after IR, CALU3 cells; format: cell-based, human; settings: 2 nM overnight, 6 Gy, compared with vehicle or 20 nM antibody
Procedure: as §2

[10] = parameters: method as in PMID 25681274; settings: cited from earlier work
CAL-27 cells [11] = test: Clonogenic cell survival (SF2), CAL-27 cells; format: cell-based, human; settings: compared with vehicle
Procedure: Following IR, cells were counted, re-plated at varying cell numbers in drug-free media. […] Surviving fraction at 2 Gy (SF2) was calculated as the fraction of cells surviving 2 Gy compared with non-irradiated cells.

CAL-27 tumour xenografts = test: CAL-27 tumour xenograft growth with or without IR; format: in vivo, mice; settings: Fig 4f, 0.5 nmol cetuximab or C-MMAE, 2 nmol free MMAE on day 0
Procedure: as §1

[12] = tested on: cell lines irrespective of HER2 expression; test: Alamar blue cell viability, cell lines irrespective of HER2 expression; format: cell-based, human; settings: fairly consistent across cell lines irrespective of HER2 expression; 72–96 h
HCT116 cells [13] = test: Clonogenic cell survival (SF2), HCT116 cells; format: cell-based, human; settings: 5 nM overnight then 2 Gy, compared with vehicle
Procedure: Following IR, cells were counted, re-plated at varying cell numbers in drug-free media. 10–14 days after initial seeding formed colonies were methanol fixed, stained with crystal violet and counted. Surviving fraction at 2 Gy (SF2) was calculated as the fraction of cells surviving 2 Gy compared with non-irradiated cells.

[14] = 0.25 nmol (∼1.9 mg kg^−1) day 0, 2.5 Gy days 1, 2 and 3
[15] = 0.25 nmol T-DM1 i.v. day 0, +IR 2.5 Gy on days 1, 2 and 3, extrapolated

Compound: ado-trastuzumab emtansine [T-DM1]
- tumour regression with T-DM1 and IR [1, 14]: significantly prolonged tumour regression
- Tumour doubling time in days (mean, 95% CI) [1, 15]: 113 (82–179) days
- Tumour doubling time in days (mean, 95% CI) ([1]; 0.25 nmol i.v. day 0, no IR): 23 (21–25) days
- radiosensitization (IR induced DNA double-strand breaks, comet tail length) [2]: restricted radiosensitization of HER2+ cells
- tumour regression with T-DM1 and IR (OE19 tumour xenografts; [14]): significantly prolonged tumour regression
- Tumour doubling time in days (mean, 95% CI) (OE19 tumour xenografts; [15]): 66 (33+) days
- Tumour doubling time in days (mean, 95% CI) (OE19 tumour xenografts; 0.25 nmol i.v. day 0, no IR): 11 (8–17) days
- slowing of tumour growth compared with control or trastuzumab (OE19 tumour xenografts; single dose of 1 nmol, by day 14): equally efficacious in slowing tumour growth
- IC50 (NCI N87 cells): < 0.001 µM
- IC50 (HCT116 cells [3]): > 0.1 µM
- IC50 (CAL-27 cells [4]; read-out: IC50 (cell viability), HER2- CAL-27, 72–96 h): > 0.1 µM
- cell cycle profile (G2/M) (HCT116 cells [5]): resembled vehicle-treated cells
- cells in G2/M in tumours (pS10 Histone H3 IHC) (OE19 tumours): increased the number of cells in radiosensitive G2/M phase
- IC50 (OE19 cells [6]): < 0.001 µM
- radiosensitization (comet tail length) (OE19 cells [7]; 2 nM T-DM1, irradiated OE19 (HER2+)): radiosensitized
- Tumour doubling time in days (mean, 95% CI) (HCT116 tumour xenografts; 0.25 nmol i.v. day 0, +IR 2.5 Gy on days 1, 2 and 3): 7 (5–12) days
- Tumour doubling time in days (mean, 95% CI) (HCT116 tumour xenografts; 0.25 nmol i.v. day 0, no IR): 3 (2–5) days
- benefit of adding T-DM1 to IR (HCT116 tumour xenografts; HER2- HCT116, 0.25 nmol day 0, 2.5 Gy days 1, 2 and 3): no benefit of adding T-DM1 to IR
- cell cycle profile (G2/M) (OE19 cells [8]): blocked OE19 cells in G2/M

Compound: CC[C@H](C)[C@@H]([C@@H](CC(=O)N1CCC[C@H]1[C@H](OC)[C@@H](C)C(=O)N[C@H](C)[C@@H](O)c1ccccc1)OC)N(C)C(=O)[C@@H](NC(=O)[C@@H](NC)C(C)C)C(C)C [MMAE, monomethyl auristatin E] (H-[NMeV]V[Dil][Dolaproine]-X1)
- cell cycle profile (G2/M) (CAL-27 cells [9]): accumulating in G2/M
- effect on IR induced comet tail length (CALU3 cells): increased comet tail length to a similar degree
- effect on IR induced comet tail length (OE19 cells [7]; 2 nM overnight, 6 Gy, compared with vehicle, 20 nM antibody or 2 nM C-MMAE): further increased comet tail length
- concentration level effective as radiosensitizer [10]: single nM level
- surviving fraction following 2 Gy (SF2) (CAL-27 cells [11]; drug overnight then 2 Gy): decreased
- cell cycle profile (G2/M) (OE19 cells [8]): accumulating in G2/M
- Mean Diff. Control vs. treatment + IR (Tukey's multiple comparisons, tumour volume) (CAL-27 tumour xenografts; day 35, + IR 3 Gy on days 1 and 2): 246.7
- Mean Diff. Control vs. treatment (Tukey's multiple comparisons, tumour volume) (CAL-27 tumour xenografts; day 35, no IR): 272

Compound: COc1cc2cc(c1Cl)N(C)C(=O)C[C@H](OC(=O)[C@H](C)N(C)C(=O)CCS)[C@]1(C)O[C@H]1[C@H](C)[C@@H]1C[C@@](O)(NC(=O)O1)[C@H](OC)/C=C/C=C(\C)C2 [mertansine]
- radiosensitization (IR induced DNA double-strand breaks, comet tail length) [2]: radiosensitized by increasing IR induced DNA double-strand breaks in both HER2+ and HER2− cell lines
- IC50 [12]: ~0.01 µM
- cell cycle profile (G2/M) (HCT116 cells [5]): increased the accumulation
- surviving fraction following 2 Gy (SF2) (HCT116 cells [13]): decreased further
- surviving fraction following 2 Gy (SF2) (CAL-27 cells [11]; 5 nM mertansine overnight then 2 Gy): decreased further
- cell cycle profile (G2/M) (OE19 cells [8]): increased the accumulation

Compound: CC(=O)O[C@H]1C(=O)[C@@]2(C)[C@H]([C@H](OC(=O)c3ccccc3)[C@]3(O)C[C@H](OC(=O)[C@H](O)[C@@H](NC(=O)c4ccccc4)c4ccccc4)C(C)=C1C3(C)C)[C@]1(OC(C)=O)CO[C@@H]1C[C@@H]2O [paclitaxel]
- cytotoxic potency, paclitaxel compared with T-DM1 (CAL-27 cells [4]; HER2- CAL-27 cells, 96 hours): more potent than T-DM1
